Results published in PMC6407592, “Novel Re(I) tricarbonyl coordination compounds based on 2-pyridyl-1,2,3-triazole derivatives bearing a 4-amino-substituted benzenesulfonamide arm: synthesis, crystal structure, computational studies and inhibitory activity against carbonic anhydrase I, II, and IX isoforms†” (Journal of Enzyme Inhibition and Medicinal Chemistry, 2019).

How the values were obtained:
hCA IX = hCA IX (Homo sapiens, UniProt Q16790); assay: stopped-flow CO2 hydrase assay, hCA IX
Description: An Applied Photophysics stopped-flow instrument was used for assaying the CA catalysed CO2 hydration activity. […] In particular, CO2 was bubbled in distilled deionised water for 30 min so that the water was saturated (the concentration at a specific temperature is known from literature). In addition, a CO2 assay kit (from Sigma) was used to measure the concentration in variously diluted solutions obtained from the saturated one (which was kept at the same temperature and a constant bubbling during the experiments). […] The uncatalysed rates were determined in the same manner and subtracted from the total observed rates. Stock solutions of inhibitor (0.1 mM) were prepared in distilled-deionised water and dilutions up to 0.01 nM were done thereafter with distilled-deionised water. Inhibitor and enzyme solutions were pre-incubated together for 15 min–2 h (or longer, i.e. 4–6 h) at room temperature (at 4 °C for the incubation periods longer than 15 min) prior to assay, in order to allow for the formation of the E-I complex. The inhibition constants were obtained by non-linear least-squares methods using PRISM 3 and the Cheng-Prusoff equation[25] ^, [26], as reported earlier, and represent the mean from at least three different determinations. hCA I was purchased by Sigma-Aldrich and used without further purification, whereas all the other hCA isoforms were recombinant ones obtained in-house as reported earlier[27] ^, [28].

hCA I = hCA I (Homo sapiens, UniProt P00915); assay: stopped-flow CO2 hydrase assay, hCA I
hCA I, sequence (P00915 whole entry): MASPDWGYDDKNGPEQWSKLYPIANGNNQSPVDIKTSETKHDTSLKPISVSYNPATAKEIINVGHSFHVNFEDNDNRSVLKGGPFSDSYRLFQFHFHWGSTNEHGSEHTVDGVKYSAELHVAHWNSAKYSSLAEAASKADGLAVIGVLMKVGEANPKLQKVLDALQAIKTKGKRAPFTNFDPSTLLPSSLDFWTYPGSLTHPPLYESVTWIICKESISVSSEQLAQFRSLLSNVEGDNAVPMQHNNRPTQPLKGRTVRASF
Description: (§1) An Applied Photophysics stopped-flow instrument was used for assaying the CA catalysed CO2 hydration activity. […] In particular, CO2 was bubbled in distilled deionised water for 30 min so that the water was saturated (the concentration at a specific temperature is known from literature). In addition, a CO2 assay kit (from Sigma) was used to measure the concentration in variously diluted solutions obtained from the saturated one (which was kept at the same temperature and a constant bubbling during the experiments). […] The uncatalysed rates were determined in the same manner and subtracted from the total observed rates. Stock solutions of inhibitor (0.1 mM) were prepared in distilled-deionised water and dilutions up to 0.01 nM were done thereafter with distilled-deionised water. Inhibitor and enzyme solutions were pre-incubated together for 15 min–2 h (or longer, i.e. 4–6 h) at room temperature (at 4 °C for the incubation periods longer than 15 min) prior to assay, in order to allow for the formation of the E-I complex. […]

hCA II = hCA II (Homo sapiens, UniProt P00918); assay: stopped-flow CO2 hydrase assay, hCA II
Description: as §1

**Q.** Which results are given for `NS(=O)(=O)c1ccc(-n2cc(-c3ccccn3)nn2)cc1` [3a, 4-(4–(2-pyridyl)-1H-1,2,3-triazol-1-yl)-benzenesulfonamide]?
**A.** Ki (hCA IX): 2.8 nM; Selectivity ratio I/IX (hCA IX; KI hCA I / KI hCA IX): 64.75; Selectivity ratio II/IX (hCA IX; KI hCA II / KI hCA IX): 1.46; fold higher affinity than its rhenium complex 4a (hCA IX; hCA IX, Ki(3a) vs Ki(4a)): 7 fold; melting point: 244 to 248 °C; Ki (hCA I): 181 nM; Ki (hCA II): 4.1 nM

**Q.** Which results are given for `NS(=O)(=O)c1ccc(Cn2cc(-c3ccccn3)nn2)cc1` [3b, 4–(4-(2-pyridyl)-1H-1,2,3-triazol-1-ylmethyl)-benzenesulfonamide]?
**A.** melting point: 192 to 195 °C; Ki (hCA I): 305 nM; Ki (hCA II): 56.1 nM
